Measured values as given in patent US20240197713A1, “LFA-1 ANTAGONISTS FOR TREATING INFLAMMATORY BOWEL DIESEASE” (VivaVision Biotech, Inc, priority 2022, published 2024).

Tested on: oxazolone-induced colitis mice
Test: Oxazolone-induced acute colitis in mice for ulcerative colitis
Type: in vivo, Balb/c mice
Conditions: compound 1 5 mg/kg, tofacitinib 10 mg/kg; for bodyweight loss (bodyweight change, FIG. 1): PO BID 5 days (Days 4 to 8 after sensitization) in 0.5% CMC-Na; for DAI score (disease activity index, FIG. 2): PO BID 5 days, scored per Table 2; for colon density (FIG. 5) / colon length (FIG. 4) / colon weight (FIG. 3): colon collected Day 9, PO BID 5 days
Method: Compound 1 (i.e., lifitegrast) was evaluated in an oxazolone-induced colitis murine model, along with tofacitinib. Boirivant et al., J. Exp. Med. 1998, 188, 1929-39. Balb/c mice were randomly divided into 4 groups according to Table 1: 2 treatment groups (Treatment Groups), 1 vehicle group (Vehicle Group), and 1 sham group (Sham Group). The mice in Treatment and Vehicle Groups were sensitized with 200 μL of 2% oxazolone in acetone and olive oil (1:4), followed by injection of 100 μL of 1.5% oxazolone into the rectum of each mouse on Day 5 after sensitization. The mice in Sham Group were sensitized with 200 μL of a mixture of acetone and olive oil (1:4) without oxazolone, followed by injection of 100 μL of 50% ethanol/water into the rectum of each mouse on Day 5 after sensitization. Before the injection into the rectum, each mouse was anesthetized intraperitoneally with tribromoethanol (0.3 mL, 1.25%). From Days 4 to 8 after sensitization, the mice in Sham Group and Vehicle Group were each given 0.5% CMC-Na by gavage, and the mice in Treatment Groups were each given by gavage tofacitinib or compound 1 in 0.5% CMC-Na, respectively, according to the dosing schedule shown in Table 1.
The bodyweight of each mouse was measured daily. From Day 4 after sensitization, the fecal property and occult blood as determined with a fecal occult blood test (FOBT) of each mouse were measured daily to calculate a disease activity index (DAI) according to Table 2.
On Day 9 after sensitization, each mouse was euthanized and blood was collected from the heart. A serum was prepared and frozen for the determination of inflammatory factors.
The colon of each mouse was collected and photographed, and the colon length was measured and weighed after the removal of the content of the colon. A part of each colon collected was fixed using the Swiss roll technique in neutral paraformaldehyde for pathological scoring (Table 3) as described in Bialkowska et al., J. Vis. Exp. 2016, 113, e54161. The rest of the colon mucosa of each mouse was scraped and frozen for the determination of inflammatory factors.

Compound	bodyweight loss (bodyweight change, FIG. 1)	DAI score (disease activity index, FIG. 2)	colon density (FIG. 5)	colon length (FIG. 4)	colon weight (FIG. 3)
C[C@@H]1CCN(C(=O)CC#N)C[C@@H]1N(C)c1ncnc2[nH]ccc12 [tofacitinib]	slowed the bodyweight loss	improved the DAI score	able to reverse the disease effects	able to reverse the disease effects	able to reverse the disease effects
CS(=O)(=O)c1cccc(C[C@H](NC(=O)c2c(Cl)cc3c(c2Cl)CCN(C(=O)c2ccc4ccoc4c2)C3)C(=O)O)c1 [compound 1, (S)-2-(2-(benzofuran-6-carbonyl)-5,7-dichloro-1,2,3,4-tetrahydroisoquinoline-6-carboxamido)-3-(3-(methylsulfonyl)phenyl)propanoic acid]	slowed the bodyweight loss	improved the DAI score	able to reverse the disease effects	able to reverse the disease effects	able to reverse the disease effects
